In the NIST ThermoML archive (doi:10.1021/je0301040):

Experiment: xn = mol fraction of the nth substance listed

FC(Cl)(Cl)Cl [trichlorofluoromethane] + FC(F)Cl
Settings | mass density [kg/m3]
424.96 K, 293.85 kPa, Fluid (supercritical or subcritical phases), Burnett expansion method, x1 = 0.832 | 11.0367
424.96 K, 373.9 kPa, Fluid (supercritical or subcritical phases), Burnett expansion method, x1 = 0.832 | 14.1459
424.96 K, 418.92 kPa, Fluid (supercritical or subcritical phases), Burnett expansion method, x1 = 0.832 | 15.9304
424.96 K, 445.3 kPa, Gas, isochoric method, x1 = 0.832 | 131.354
424.96 K, 567.37 kPa, Fluid (supercritical or subcritical phases), Burnett expansion method, x1 = 0.832 | 21.9341
424.96 K, 662.1 kPa, Gas, isochoric method, x1 = 0.832 | 200.808
424.96 K, 663.7 kPa, Gas, isochoric method, x1 = 0.832 | 200.808
424.96 K, 715.19 kPa, Fluid (supercritical or subcritical phases), Burnett expansion method, x1 = 0.832 | 28.1109
424.96 K, 797.38 kPa, Fluid (supercritical or subcritical phases), Burnett expansion method, x1 = 0.832 | 31.6606
424.96 K, 967.2 kPa, Gas, isochoric method, x1 = 0.832 | 303.998
424.96 K, 969 kPa, Gas, isochoric method, x1 = 0.832 | 303.998
424.96 K, 1086 kPa, Fluid (supercritical or subcritical phases), Burnett expansion method, x1 = 0.832 | 44.6324
424.96 K, 1298.4 kPa, Gas, isochoric method, x1 = 0.832 | 426.053
424.96 K, 1299.4 kPa, Gas, isochoric method, x1 = 0.832 | 426.053
424.96 K, 1617.2 kPa, Gas, isochoric method, x1 = 0.832 | 556.221
424.96 K, 1619.2 kPa, Gas, isochoric method, x1 = 0.832 | 556.221
424.96 K, 3854.3 kPa, Liquid, Pycnometric method, x1 = 0.8336 | 1012.94
424.96 K, 4517.9 kPa, Liquid, Pycnometric method, x1 = 0.8336 | 1028.76
424.96 K, 7331.5 kPa, Liquid, Pycnometric method, x1 = 0.8336 | 1077.17
424.96 K, 20744 kPa, Liquid, Pycnometric method, x1 = 0.8336 | 1193.05
424.96 K, 49662 kPa, Liquid, Pycnometric method, x1 = 0.8336 | 1310.9
424.96 K, 65344 kPa, Liquid, Pycnometric method, x1 = 0.8336 | 1352.8
424.97 K, 150.03 kPa, Fluid (supercritical or subcritical phases), Burnett expansion method, x1 = 0.832 | 5.5536
424.97 K, 153.48 kPa, Fluid (supercritical or subcritical phases), Burnett expansion method, x1 = 0.832 | 5.6866
424.97 K, 215.05 kPa, Fluid (supercritical or subcritical phases), Burnett expansion method, x1 = 0.832 | 8.0157
424.97 K, 300.89 kPa, Fluid (supercritical or subcritical phases), Burnett expansion method, x1 = 0.832 | 11.3011
424.97 K, 409.41 kPa, Fluid (supercritical or subcritical phases), Burnett expansion method, x1 = 0.832 | 15.5588
424.97 K, 444.8 kPa, Gas, isochoric method, x1 = 0.832 | 131.354
424.97 K, 518.76 kPa, Fluid (supercritical or subcritical phases), Burnett expansion method, x1 = 0.832 | 19.9414
424.97 K, 580.12 kPa, Fluid (supercritical or subcritical phases), Burnett expansion method, x1 = 0.832 | 22.4579
424.97 K, 977.19 kPa, Fluid (supercritical or subcritical phases), Burnett expansion method, x1 = 0.832 | 39.6298
424.97 K, 1317.5 kPa, Fluid (supercritical or subcritical phases), Burnett expansion method, x1 = 0.832 | 55.8677
424.97 K, 3592.7 kPa, Liquid, Pycnometric method, x1 = 0.8336 | 1005.84
424.97 K, 4190.2 kPa, Liquid, Pycnometric method, x1 = 0.8336 | 1021.29
424.97 K, 4853 kPa, Liquid, Pycnometric method, x1 = 0.8336 | 1035.91
424.97 K, 5457.4 kPa, Liquid, Pycnometric method, x1 = 0.8336 | 1047.58
424.97 K, 6169.4 kPa, Liquid, Pycnometric method, x1 = 0.8336 | 1059.78
424.97 K, 14203 kPa, Liquid, Pycnometric method, x1 = 0.8336 | 1148.26
424.97 K, 27900 kPa, Liquid, Pycnometric method, x1 = 0.8336 | 1230.65
424.97 K, 35700 kPa, Liquid, Pycnometric method, x1 = 0.8336 | 1263.74
424.97 K, 42738 kPa, Liquid, Pycnometric method, x1 = 0.8336 | 1289.02
424.97 K, 56282 kPa, Liquid, Pycnometric method, x1 = 0.8336 | 1329.7
424.97 K, 61980 kPa, Liquid, Pycnometric method, x1 = 0.8336 | 1344.58
429.96 K, 2000.6 kPa, Gas, isochoric method, x1 = 0.832 | 715.595
429.96 K, 2000.8 kPa, Gas, isochoric method, x1 = 0.832 | 715.595
429.96 K, 2002.4 kPa, Gas, isochoric method, x1 = 0.832 | 715.595
474.95 K, 4750 kPa, Fluid (supercritical or subcritical phases), Burnett expansion method, x1 = 0.832 | 271.514
474.97 K, 1108 kPa, Fluid (supercritical or subcritical phases), Burnett expansion method, x1 = 0.832 | 39.0371
474.98 K, 322.47 kPa, Fluid (supercritical or subcritical phases), Burnett expansion method, x1 = 0.832 | 10.7116
474.98 K, 601.7 kPa, Fluid (supercritical or subcritical phases), Burnett expansion method, x1 = 0.832 | 20.4396
474.98 K, 1965.5 kPa, Fluid (supercritical or subcritical phases), Burnett expansion method, x1 = 0.832 | 74.5021
474.98 K, 1995.2 kPa, Fluid (supercritical or subcritical phases), Burnett expansion method, x1 = 0.832 | 75.9597
474.98 K, 3255.8 kPa, Fluid (supercritical or subcritical phases), Burnett expansion method, x1 = 0.832 | 142.18
474.98 K, 3296.6 kPa, Fluid (supercritical or subcritical phases), Burnett expansion method, x1 = 0.832 | 144.503
474.98 K, 4786.8 kPa, Fluid (supercritical or subcritical phases), Burnett expansion method, x1 = 0.832 | 274.877
474.98 K, 5920.1 kPa, Fluid (supercritical or subcritical phases), Burnett expansion method, x1 = 0.832 | 522.524
474.98 K, 13635 kPa, Fluid (supercritical or subcritical phases), Burnett expansion method, x1 = 0.832 | 993.788
474.99 K, 590.67 kPa, Fluid (supercritical or subcritical phases), Burnett expansion method, x1 = 0.832 | 20.1833
474.99 K, 1081.5 kPa, Fluid (supercritical or subcritical phases), Burnett expansion method, x1 = 0.832 | 38.4124
474.99 K, 1126.1 kPa, Fluid (supercritical or subcritical phases), Burnett expansion method, x1 = 0.832 | 39.9341
474.99 K, 1933.1 kPa, Fluid (supercritical or subcritical phases), Burnett expansion method, x1 = 0.832 | 73.0924
474.99 K, 3211.7 kPa, Fluid (supercritical or subcritical phases), Burnett expansion method, x1 = 0.832 | 139.089
474.99 K, 4708.1 kPa, Fluid (supercritical or subcritical phases), Burnett expansion method, x1 = 0.832 | 264.786
475 K, 5875.1 kPa, Fluid (supercritical or subcritical phases), Burnett expansion method, x1 = 0.832 | 503.942
475 K, 5905.8 kPa, Fluid (supercritical or subcritical phases), Burnett expansion method, x1 = 0.832 | 518.038
475 K, 12413 kPa, Fluid (supercritical or subcritical phases), Burnett expansion method, x1 = 0.832 | 958.868
475.01 K, 13484 kPa, Fluid (supercritical or subcritical phases), Burnett expansion method, x1 = 0.832 | 988.822
